We go through five molecules from patent publication US7402417B2, “P450 oxygenases and methods of use” (Washington State University Research Foundation, priority 2003, dated 2008).

Experiment [1] concerns microsomal 5α-hydroxylase activity. Put plainly: Kinetic evaluation with Taxus suspension cell microsomes (radio-HPLC, total product). It counts as biochemical, Taxus media hicksii. The note with it: T. media suspension cell microsomes, [20-3H] substrate. On the procedure: Preparation of Taxus suspension cell microsomes and assays for microsomal 5α-hydroxylase activity were carried out as previously described (Hefner et al., Chem. Biol., 3:479489, 1996; Lovy Wheeler et al., Arch. Biochem. Biophys., 390:265-278, 2001) with the following modifications: Unelicited Taxus media hicksii cells were harvested 14 days after transfer, separated from the media, frozen in liquid N2 and ground to a fine powder with a mortar and pestle, with extraction and microsome preparation as described by Lovy Wheeler et al. (Arch. Biochem. Biophys., 390:265-278, 2001). The previously described radio-HPLC-based assay (Lovy Wheeler et al., Arch. Biochem. Biophys., 390:265-278, 2001) was employed to separate the substrate from taxadien-5α-ol and polyols derived therefrom which were summed as “total product” for the purpose of rate determination.
Following the confirmation of linear reaction conditions in protein concentration and time, kinetic constants were determined for both [20-3H]taxa-4(5),11(12)-diene and [20-3H]taxa-4(20),11(12)-diene with the optimized assay (Hefner et al., Chem. Biol., 3:479-489, 1996). The radio-HPLC-based assay previously described by Lovy Wheeler et al. (Arch. Biochem. Biophys., 390:265-278, 2001) was employed to permit summing of taxadien-polyols derived subsequently from the initially formed taxadienol product generated by this microsomal system that contains all of the downstream cytochrome P450 taxoid oxygenases of the pathway (Lovy Wheeler et al., Arch. Biochem. Biophys., 390:265-278, 2001).
Thus, one or more constituents of the crude Taxus microsomal protein preparation catalyze the reaction of taxa-4(5),11(12)-diene and taxa-4(20),11(12)-diene to the corresponding taxadienols.

The test system of experiment [2] is microsomal taxa-4(5),11(12)-diene isomerase activity. Put plainly: Assay for microsomal taxadiene isomerase activity and pH-dependent isomerization. In kind it is biochemical. The note with it: Taxus or Spodoptera microsomes, no NADPH or no O2, or CO, miconazole, clotrimazole, boiled controls. As to the method: The assay for microsomal taxa-4(5),11(12)-diene isomerase activity (and the reverse isomerization) was carried out under standard cytochrome P450 oxygenase conditions but in the absence of NADPH or O2, or in the presence of inhibitory concentrations of CO, miconazole or clotrimazole (under conditions described previously for which the rate of 5α-hydroxylation is negligible (Hefner et al., Chem. Biol., 3:479489, 1996)). A number of additional, potential cofactors were also tested, including FAD, FADH2, FMN, FMNH2, NAD+, NADH and NADP+ (all at 2.5 mM), as well as MgCl2 (at 5.0 mM). The possibility of pH-dependent isomerization was tested by incubating each isomer (100 μM) in phosphate buffer (pH 4 to 10) for 12 hours at 31° C., with separation of isomers as described previously (Williams et al., Arch. Biochem. Biophys., 379:137-146, 2000).

Experiment [3] deals with T1, recombinant taxoid 5α-hydroxylase (clone S1) (Taxus cuspidata, UniProt Q6WG30).
T1 construct: the S1 ORF was amplified using Pfu DNA polymerase and gene-specific primers containing a BamHI site immediately upstream of the start codon; made in house; host or cells: Spodoptera frugiperda Sf9 cells (baculovirus, pFastBac1); microsomal membranes
T1 sequence (Q6WG30 with tags, fused parts or gaps): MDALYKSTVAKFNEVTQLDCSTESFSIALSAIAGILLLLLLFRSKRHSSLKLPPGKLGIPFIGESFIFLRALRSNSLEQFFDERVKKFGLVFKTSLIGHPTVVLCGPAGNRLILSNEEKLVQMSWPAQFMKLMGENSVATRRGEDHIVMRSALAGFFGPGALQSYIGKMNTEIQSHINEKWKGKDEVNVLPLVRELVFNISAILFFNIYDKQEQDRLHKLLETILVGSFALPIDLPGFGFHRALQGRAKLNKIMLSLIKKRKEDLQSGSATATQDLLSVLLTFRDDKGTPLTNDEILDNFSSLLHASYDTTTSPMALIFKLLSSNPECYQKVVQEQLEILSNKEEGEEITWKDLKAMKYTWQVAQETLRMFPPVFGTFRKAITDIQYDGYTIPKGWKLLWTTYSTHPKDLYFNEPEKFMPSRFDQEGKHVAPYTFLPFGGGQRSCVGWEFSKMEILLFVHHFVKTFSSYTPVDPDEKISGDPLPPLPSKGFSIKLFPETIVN
As to the kind of experiment: Kinetic evaluation with Sf9 microsomes enriched in recombinant 5α-hydroxylase (radio-HPLC, Michaelis-Menten). It counts as biochemical. The note with it: recombinant enzyme, 200 μM NADPH plus regenerating system. As to the method:
Kinetic constants for both isomers were next evaluated (at a saturating 200 μM concentration of NADPH plus regenerating system; Shimada and Yamazai, Meth. Mol. Biol., 107:85-93, 1998). The isolated microsomes were resuspended in 50 mM Hepes, pH 7.5, containing 1 mM DTT and 5% (v/v) glycerol, and the 1 ml reactions (˜600 μg protein, 50 μM substrate dissolved in DMSO, and the requisite cofactors (e.g., NADPH plus regenerating system) were run as described previously, with the identical protocols for product analysis (Jennewein et al., Proc. Natl. Acad. Sci. USA, 98:13595-13600, 2001). DMSO was without influence on the reaction. For kinetic evaluation, following the establishment of linear reaction conditions in protein concentration and time, the response to substrate concentration was plotted by the Michaelis-Menten method (Sigmaplot 7.0) using the calibrated radio-HPLC protocol for product determination Data from three independent experiments were pooled and the line of best fit taken (R^2>0.99).

In the next experiment the target is taxoid 5α-hydroxylase (Taxus cuspidata, UniProt Q6WG30). As to the kind of experiment: Kinetic evaluation of taxadiene isomers, average of recombinant and T. media microsomes (FIG. 4). It counts as biochemical. The note with it: average of recombinant (Sf9) and T. media microsomes; substrate 1 to 500 μM. On the procedure: Taxa-4(20),11(12)-diene (◯) and taxa-4(5),11(12)-diene (●) were evaluated with microsomes from S. formgiperda cells enriched with 50 pmol recombinant taxoid 5α-hydroxylase (A), and with microsomes from T. media suspension cells containing about 50 pmol of total native cytochrome P450 (B). Substrate Concentration range was varied from 1 to 500 μM in all cases.
taxoid 5α-hydroxylase, sequence (Q6WG30 whole entry): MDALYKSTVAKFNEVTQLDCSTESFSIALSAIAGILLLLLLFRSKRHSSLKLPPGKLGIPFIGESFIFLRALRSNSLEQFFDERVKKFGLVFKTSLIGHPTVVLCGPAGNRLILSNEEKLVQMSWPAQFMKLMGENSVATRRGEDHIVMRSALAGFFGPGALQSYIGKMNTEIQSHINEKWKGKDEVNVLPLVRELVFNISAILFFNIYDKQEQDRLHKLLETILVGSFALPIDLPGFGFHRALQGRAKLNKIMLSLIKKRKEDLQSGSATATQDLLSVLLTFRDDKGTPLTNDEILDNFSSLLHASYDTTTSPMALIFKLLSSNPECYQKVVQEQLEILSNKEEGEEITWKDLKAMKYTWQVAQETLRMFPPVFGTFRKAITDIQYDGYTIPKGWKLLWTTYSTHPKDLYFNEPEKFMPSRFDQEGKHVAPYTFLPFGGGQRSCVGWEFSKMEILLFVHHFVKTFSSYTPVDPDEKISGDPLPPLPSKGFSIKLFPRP

For experiment [4], the target named is T2, clone S1 taxoid 5α-hydroxylase in Saccharomyces cerevisiae WAT11 (Taxus cuspidata, UniProt Q6WG30).
T2 construct: expressed in transfected cells; host or cells: Saccharomyces cerevisiae strain WAT11
T2 sequence (Q6WG30 with tags, fused parts or gaps limits assumed): as the sequence (Q6WG30 with tags, fused parts or gaps) above
As to the kind of experiment: In vivo feeding of labeled substrate to yeast expressing clone S1, radio-HPLC and GC-MS of products. The note with it: 30 μM substrate. It counts as cell-based. An excerpt: This in vivo feeding protocol eliminated the uncertainties associated with microsome isolation and in vitro assay, including the instability of P450 oxygenases in yeast membranes (Schoendorf et al., Proc. Nail. Acad. Sci. USA, 98:1501-1506, 2001).
Transformed and induced yeast cells were harvested by centrifugation as described in Example 2. As a negative control for the feeding experiments, the yeast host was transformed with the pYES2.1/V5-HIS-TOPO™ vector containing a β-glucuronidase insert instead of the cytochrome P450 S1 clone. The cells were resuspended in 3 ml of fresh YPLA medium to which 30 μM of the labeled test substrate was added. Test substrates included:
The cell and test substrate suspension was incubated overnight at 30° C. with mixing (250 rpm). The incubation mixture was then treated for 15 minutes in a sonication bath and extracted twice with 3 ml of hexane:ethyl acetate (4:1 v/v). The organic extract was then dried under N2, the residue dissolved in 100 μl of acetonitrile, and an aliquot was separated by reversed-phase radio-HPLC (250 mm×4.6 mm column of Alltech (Deerfield, Ill.) Econosil C18 (5 μm); flow rate of 1 ml/min; with radio-detection of the effluent (Flow-One-Beta Series A-1000, Radiomatic Corp., Meriden, Conn.)). The following gradient was employed: 0-5 minutes at 100% Solvent A (97.99% H2O with 2% CH3CN and 0.01% H3PO4 (v/v)), 5-15 minutes at 0-50% Solvent B (99.99% CH3CN with 0.01% H3PO4 (v/v)), 15-55 minutes at 50-100% Solvent B, 55-65 minutes at 100% Solvent B, 65-70 minutes at 0-100% Solvent A, 70-75 minutes at 100% Solvent A. The HPLC eluant was collected in 1 minute fractions and the appropriate fractions containing the radiolabeled product were combined, dried under a stream of N2, and dissolved in the minimum volume of benzene for GC-MS analysis.
GC-MS analyses were performed on a Hewlett-Packard 6890 GC-MSD system using a ZB-5 capillary column (Phenomenex (Torrance, Calif.); 30 m length; 0.25 mm inner diameter; coated with a 0.25 μm film of phenyl (5%) polysiloxane). Cool on-column injection was used, with He flow rate of 0.7 ml/min and a temperature program from 40° C. to 320° C. at 20° C./min. Spectra were recorded at 70 eV.

For experiment [5], the target named is T1, recombinant taxoid 5α-hydroxylase (clone S1). Put plainly: Substrate binding spectra with Sf9 microsomes enriched in recombinant 5α-hydroxylase. To be noted: no NADPH. As to the method:
Microsomes from S. frugiperda cells enriched with 200 pmol recombinant taxoid 5α-hydroxylase (clone S1) were employed. Taxa-4(20),11(12)-diene was assayed over a concentration range from 0.1 to 10 μM, and a binding constant (Ks) of 4±1 μM was determined (upper graph). Taxa-4(5),11(12)-diene was assayed over a concentration range of 0.1 to 20 μM and a binding constant (Ks) of 6.5±1.5 μM was determined (lower graph).
Binding spectra for both taxadiene isomers (in the absence of NADPH) were then recorded using the Sf9 cell microsomes enriched in the recombinant 5α-hydroxylase. Substrate binding spectra were obtained as described by Schenkin and Jausson, Methods Mol. Biol. (Cytochrome P450 Protocols), 107:25-33, 1998) using a Perkin-Elmer Lambda 18 spectrophotometer (Haudenschild et al., Arch. Biochem. Biophys., 379:127-136, 2000). Substrate binding spectra were recorded with up to 200 pmol of recombinant microsomal cytochrome P450 enzyme (as determined by CO-difference spectral analysis) per cuvette in 100 mM sodium phosphate buffer at pH 7.5. In preparation for binding studies, the taxadiene isomers were each dissolved in DMSO and 1 μl additions to the sample were made to a final concentration of 1.5% (v/v). For data analysis, Spectrum for Windows (Perkin-Elmer Corp., Wellesey, Mass.) and Sigmaplot 7.0 (SPSS Inc., Chicago, Ill.) were employed and experiments were run in triplicate.

The subject of experiment [6] is native microsomal 5α-hydroxylase. To be noted: native microsome preparations from yew stem tissue, determined previously; cited from earlier work.
Another experiment concerns 5α-hydroxylase. To be noted: 100 μM inhibitor; cited from earlier work.
A further experiment addresses T3, taxoid 13α-hydroxylase (Taxus cuspidata, UniProt Q8W4T9).
T3 construct: expressed in transfected cells
Put plainly: Feeding to yeast that functionally express taxoid 13α-hydroxylase. In kind it is cell-based. To be noted: product of clone S1 enzyme fed to 13α-hydroxylase yeast. An excerpt:
The taxa-4(20),11(12)-dien-5α-ol radiolabeled product of the clone S1 enzyme was isolated by HPLC, and the purified material was fed to yeast that functionally express the previously characterized taxoid 13α-hydroxylase (Jennewein et al., Proc. Natl. Acad. Sci. USA, 98:13595-13600, 2001). As discussed above, 13α-hydroxylation of a paclitaxel intermediate is believed to follow 5α-hydroxylation in the paclitaxel biosynthetic pathway (Floss and Mocek, Taxol: Science and Applications, CRC Press, Boca Raton, 191-208, 1995; and Croteau et al., Curr. Top. Plant Physiol. 15:94-104, 1996). Thus, as expected, taxa-4(20),11(12)-dien-5α-ol was quantitatively converted to taxa-4(20),11(12)-dien-5α,13α-diol by the 13α-hydroxylase.

Setting [7] is: overnight at 30° C., radio-HPLC.
Where [8] appears, read: FIG. 3, microsomes with 200 pmol recombinant enzyme, read-out: binding constant (Ks).
[9] abbreviates: over a 100-fold range of substrate concentrations, pH 7.5, read-out: substrate binding constant (Ks), variation.

SMILES strings stand for the structures. Like-named read-outs stand apart in the source and are kept apart here. Bounds are passed on as bounds.

By Km is commonly meant the concentration of substrate that gives half-maximal velocity.

T3 sequence (Q8W4T9 whole entry): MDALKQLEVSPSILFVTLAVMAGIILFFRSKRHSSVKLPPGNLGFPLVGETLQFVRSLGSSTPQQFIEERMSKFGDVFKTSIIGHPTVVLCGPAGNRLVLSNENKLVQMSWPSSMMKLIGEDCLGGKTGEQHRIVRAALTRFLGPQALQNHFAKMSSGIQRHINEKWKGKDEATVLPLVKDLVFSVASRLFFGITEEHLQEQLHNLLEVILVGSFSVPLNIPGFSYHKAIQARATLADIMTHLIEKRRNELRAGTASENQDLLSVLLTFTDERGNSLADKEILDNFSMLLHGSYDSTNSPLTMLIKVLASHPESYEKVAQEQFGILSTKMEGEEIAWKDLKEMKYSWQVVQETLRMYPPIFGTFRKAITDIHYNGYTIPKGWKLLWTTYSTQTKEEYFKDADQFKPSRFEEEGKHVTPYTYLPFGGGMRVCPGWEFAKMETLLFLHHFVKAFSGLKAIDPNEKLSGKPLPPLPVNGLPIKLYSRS

As to `CC1=CCC[C@@]2(C)CCC3=C(C)CC[C@@H](C[C@H]12)C3(C)C` [taxa-4(5),11(12)-diene], the Km in experiment [1] was 48 µM; in [6], around 6 µM. In addition, the Vrel in experiment [1] and in [3] was 100 throughout. Also, the “isomerization to the other taxadiene positional isomer” value in experiment [2] is “No isomerization”; in experiment [2] (listed as 3), “not observed”. For the same molecule, on taxoid 5α-hydroxylase, the “Vrel (average)” value is 100. For the same molecule, in [4] (setting [7]), the “conversion to more polar products” value was “almost quantitatively”. In addition, the “share of minor product taxadien-diol” value in [4] (setting [7]) is below 50%. The “share of principal product taxa-4(20),11(12)-dien-5α-ol” value in [4] (setting [7]) is on record as above 92%. Besides, the Kd was 6.5 ± 1.5 µM in experiment [5] (setting [8]) and 5 to 8 µM in experiment [5] (setting [9]).

Turning to `Clc1ccccc1C(c1ccccc1)(c1ccccc1)n1ccnc1` [clotrimazole], the “hydroxylation activity in the presence of the inhibitor” value in the experiment on 5α-hydroxylase is on record as “negligible”.

Take `C=C1CCC[C@@]2(C)CCC3=C(C)CC[C@@H](C[C@H]12)C3(C)C` [taxa-4(20),11(12)-diene]: in experiment [1], the Km amounted to 27 µM and the Vrel is reported as 150. In addition, the “isomerization to the other taxadiene positional isomer” value in [2] is on record as “No isomerization”. Besides, the Vrel in experiment [3] is 120. Further, the “Vrel (average)” value at taxoid 5α-hydroxylase came out at 135. For the same molecule, in experiment [4] (setting [7]), the “share of minor product taxadien-diol” value is on record as around 8% and the “share of principal product taxa-4(20),11(12)-dien-5α-ol” value is reported as around 90%. The “share of other minor metabolites in product mix” value in experiment [4] (also formed in negative control) was around 2%. Moreover, the Kd in experiment [5] (setting [8]) amounted to 4 ± 1 µM. Besides, the Kd in experiment [5] (setting [9]) was in the range of 3 to 5 µM.

As for `C=C1[C@H]2C[C@@H]3CCC(C)=C(CC[C@]2(C)CC[C@@H]1O)C3(C)C` [taxa-4(20),11(12)-dien-5α-ol], the “conversion to taxa-4(20),11(12)-dien-5α,13α-diol” value at taxoid 13α-hydroxylase is listed as “quantitatively”.

Consider `Clc1ccc(COC(Cn2ccnc2)c2ccc(Cl)cc2Cl)c(Cl)c1` (stereo not shown) [miconazole], for which the “hydroxylation activity in the presence of the inhibitor” value in the experiment on 5α-hydroxylase is given as “negligible”.
